This assay has as its target T1, recombinant human GluN1/GluN2A receptor (Homo sapiens, UniProt Q05586+Q12879).
T1 construct: expressed in transfected cells; host or cells: HEK293, tetracycline-inducible expression
As to the kind of experiment: Whole-cell patch clamp of mammalian cells (Syncropatch 384i), NMDA modulation. It is filed as cell-based. As to conditions: HEK293 cells, human GluN1/GluN2A, glutamate 1 μM / glycine 100 μM, -80 mV, peak amplitude increase; for pEC50: read-out: EC50. In short, it runs like this: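 Modulation read as fold rise in peak current, (Icomp/Icontrol)−1, from 8 concentrations with ≥2 wells each, four-parameter fit. Compound pre-incubated 120 s then co-applied with 1 μM glutamate plus 100 μM glycine; tetracycline-inducible HEK293 GluN1/GluN2A cells clamped at −80 mV.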
For orientation: The patch-clamp technique gives a direct electrical read-out from membranes.

In patent US20240368214A1, “POSITIVE NMDA-MODULATING COMPOUNDS AND METHODS OF USE THEREOF” (SAGE THERAPEUTICS, INC., priority 2021, published 2024) one finds Emax and EC50 data, which are given here for 15 compounds.

Molecules are shown by their SMILES. pEC50: −log10 of the molar value. Where two headings read alike, the source gives them in different places. Some results are limits rather than exact numbers.

A word on the Emax: it is the greatest response seen or fitted, relative to the assay's reference. A word on the pEC50: it is the negative decadic logarithm of the EC50, by convention in mol/L.

T1 sequence (Q12879 23-1464, other chains not shown): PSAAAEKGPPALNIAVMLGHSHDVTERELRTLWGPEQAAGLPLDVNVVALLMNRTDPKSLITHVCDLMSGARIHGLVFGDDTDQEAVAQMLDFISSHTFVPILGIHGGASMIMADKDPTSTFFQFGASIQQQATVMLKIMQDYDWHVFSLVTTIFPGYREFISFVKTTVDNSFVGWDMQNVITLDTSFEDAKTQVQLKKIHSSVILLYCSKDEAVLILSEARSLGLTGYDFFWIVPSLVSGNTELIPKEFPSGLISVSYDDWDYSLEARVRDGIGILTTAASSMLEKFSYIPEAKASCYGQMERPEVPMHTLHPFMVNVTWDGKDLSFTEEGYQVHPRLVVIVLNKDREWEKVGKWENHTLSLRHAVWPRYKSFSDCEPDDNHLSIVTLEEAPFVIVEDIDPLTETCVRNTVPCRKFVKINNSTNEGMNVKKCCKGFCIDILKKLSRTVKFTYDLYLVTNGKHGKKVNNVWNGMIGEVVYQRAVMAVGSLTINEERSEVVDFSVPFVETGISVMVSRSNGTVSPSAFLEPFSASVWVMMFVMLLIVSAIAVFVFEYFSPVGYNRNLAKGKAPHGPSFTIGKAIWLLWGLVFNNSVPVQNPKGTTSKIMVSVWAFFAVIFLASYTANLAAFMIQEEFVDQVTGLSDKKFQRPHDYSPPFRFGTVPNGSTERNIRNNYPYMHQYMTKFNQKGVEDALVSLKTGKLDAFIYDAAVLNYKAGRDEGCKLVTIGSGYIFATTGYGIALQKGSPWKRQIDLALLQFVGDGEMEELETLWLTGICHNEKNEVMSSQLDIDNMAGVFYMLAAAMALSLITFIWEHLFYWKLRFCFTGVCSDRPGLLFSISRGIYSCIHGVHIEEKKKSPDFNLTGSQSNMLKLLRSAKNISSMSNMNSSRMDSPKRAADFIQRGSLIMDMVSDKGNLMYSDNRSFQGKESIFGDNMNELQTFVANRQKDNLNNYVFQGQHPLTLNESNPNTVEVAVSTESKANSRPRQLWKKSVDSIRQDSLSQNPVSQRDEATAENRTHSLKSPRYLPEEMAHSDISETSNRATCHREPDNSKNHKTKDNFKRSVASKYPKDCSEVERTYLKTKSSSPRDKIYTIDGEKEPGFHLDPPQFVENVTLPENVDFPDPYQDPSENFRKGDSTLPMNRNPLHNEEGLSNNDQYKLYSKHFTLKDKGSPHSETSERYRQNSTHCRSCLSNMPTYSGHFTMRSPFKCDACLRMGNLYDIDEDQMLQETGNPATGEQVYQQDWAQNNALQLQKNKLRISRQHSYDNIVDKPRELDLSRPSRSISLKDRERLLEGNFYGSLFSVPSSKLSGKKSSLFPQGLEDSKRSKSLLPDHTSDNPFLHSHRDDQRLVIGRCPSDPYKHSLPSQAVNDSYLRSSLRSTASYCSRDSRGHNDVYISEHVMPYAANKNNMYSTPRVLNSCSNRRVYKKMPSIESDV

For `CC[C@]1(O)CC[C@H]2[C@@H](CC[C@@H]3[C@@H]2CC[C@]2(C)[C@@H]([C@H](C)CC[C@](C)(O)C(F)(F)F)CC[C@@H]32)C1` [Compound G-1, (3S,5S,8R,9R,10S,13R,14S,17R)-3-ethyl-13-methyl-17-((2R,5S)-6,6,6-trifluoro-5-hydroxy-5-methylhexan-2-yl)hexadecahydro-1H-cyclopenta[a]phenanthren-3-ol], under “Table G-2”, the Emax was > 200% and the pEC50 is 7.00 to 9.00.

For the compound `CC[C@]1(O)CC[C@H]2[C@@H](CC[C@@H]3[C@@H]2CC[C@]2(C)[C@@H]([C@H](C)CC[C@@](C)(O)C(F)(F)F)CC[C@@H]32)C1` [Compound G-2, (3S,5S,8R,9R,10S,13R,14S,17R)-3-ethyl-13-methyl-17-((2R,5R)-6,6,6-trifluoro-5-hydroxy-5-methylhexan-2-yl)hexadecahydro-1H-cyclopenta[a]phenanthren-3-ol], under “Table G-2”, the maximal response (Emax) lay within 100 to 200% and the pEC50 is 6.00 to 6.30.

As for `CC[C@]1(O)CC[C@@]2(CC)[C@@H](CC[C@H]3[C@@H]4CC[C@H]([C@H](C)CCCC(C)(C)O)[C@@]4(C)CC[C@@H]32)C1` [Compound G-3, (3S,5S,8S,9S,10S,13R,14S,17R)-3,10-diethyl-17-((R)-6-hydroxy-6-methylheptan-2-yl)-13-methylhexadecahydro-1H-cyclopenta[a]phenanthren-3-ol], for the setting “Table G-2”, the maximal effect (Emax) was in the range of 100 to 200% and the pEC50 is 7.00 to 9.00.

With `CC[C@]1(O)CC[C@@]2(CC)[C@@H](CC[C@H]3[C@@H]4CC[C@H]([C@H](C)CC[C@@](C)(O)C(F)(F)F)[C@@]4(C)CC[C@@H]32)C1` [Compound G-4, (3S,5S,8S,9S,10S,13R,14S,17R)-3,10-diethyl-13-methyl-17-((2R,5R)-6,6,6-trifluoro-5-hydroxy-5-methylhexan-2-yl)hexadecahydro-1H-cyclopenta[a]phenanthren-3-ol], for the setting “Table G-2”, the Emax fell in the range of 100 to 200% and the negative-log EC50 (pEC50) is 6.30 to 7.00.

On to `CC[C@]1(O)CC[C@@]2(CC)[C@@H](CC[C@H]3[C@@H]4CC[C@H]([C@H](C)CC[C@](C)(O)C(F)(F)F)[C@@]4(C)CC[C@@H]32)C1` [Compound G-5, (3S,5S,8S,9S,10S,13R,14S,17R)-3,10-diethyl-13-methyl-17-((2R,5S)-6,6,6-trifluoro-5-hydroxy-5-methylhexan-2-yl)hexadecahydro-1H-cyclopenta[a]phenanthren-3-ol], for which, under “Table G-2”, the Emax is > 200% and the pEC50 is 7.00 to 9.00.

In the case of `C[C@H](CC[C@](C)(O)C(F)(F)F)[C@H]1CCC[C@H]2[C@@H]3CC=C4C[C@@](C)(O)CC[C@]4(C)[C@H]3CC[C@]12C` [Compound H-1, (2S,4aR,4bS,6aR,7R,10aS,10bS)-2,4a,6a-trimethyl-7-((2R,5S)-6,6,6-trifluoro-5-hydroxy-5-methylhexan-2-yl)-1,2,3,4,4a,4b,5,6,6a,7,8,9,10,10a,10b,11-hexadecahydrochrysen-2-ol], under “Table H-2”, the maximal response (Emax) fell in the range of 100 to 200% and the pEC50 is 6.00 to 6.30.

As to `C[C@H](CCC1(O)CCC(C)(C)CC1)[C@H]1CCC[C@H]2[C@@H]3CC[C@H]4C[C@](O)(C(F)(F)F)CC[C@]4(C)[C@H]3CC[C@]12C` [Compound H-3, (2S,4aS,4bS,6aR,7R,10aS,10bR,12aS)-7-((R)-4-(1-hydroxy-4,4-dimethylcyclohexyl)butan-2-yl)-4a,6a-dimethyl-2 (trifluoromethyl)octadecahydrochrysen-2-ol], the pEC50 (Table H-2) is < 6.00.

Turning to `CC[C@]1(O)CC[C@@]2(C)[C@@H](CC[C@@H]3[C@@H]2CC[C@]2(C)[C@@H]([C@H](C)CCCC(C)(C)O)CCC[C@@H]32)C1` [Compound H-4, (2S,4aS,4bS,6aR,7R,10aS,10bR,12aS)-2-ethyl-7-((R)-6-hydroxy-6-methylheptan-2-yl)-4a,6a-dimethyloctadecahydrochrysen-2-ol], for the setting “Table H-2”, the maximal effect (Emax) is 100 to 200% and the pEC50 is 6.30 to 7.00.

Consider `CC[C@]1(O)CC[C@@]2(C)C(=CC[C@H]3[C@@H]4CCC[C@H]([C@H](C)CC[C@H](O)C(C)C)[C@@]4(C)CC[C@@H]32)C1` [Compound H-5, (2S,4aR,4bS,6aR,7R,10aS,10bS)-2-ethyl-7-((2R,5S)-5-hydroxy-6-methylheptan-2-yl)-4a,6a-dimethyl-1,2,3,4,4a,4b,5,6,6a,7,8,9,10,10a,10b,11-hexadecahydrochrysen-2-ol], for which the negative-log EC50 (pEC50) (Table H-2) was 6.30 to 7.00.

Turning to `CC[C@]1(O)CC[C@@]2(C)C(=CC[C@H]3[C@@H]4CCC[C@H]([C@H](C)CC[C@@H](O)C(C)C)[C@@]4(C)CC[C@@H]32)C1` [Compound H-6, (2S,4aR,4bS,6aR,7R,10aS,10bS)-2-ethyl-7-((2R,5R)-5-hydroxy-6-methylheptan-2-yl)-4a,6a-dimethyl-1,2,3,4,4a,4b,5,6,6a,7,8,9,10,10a,10b,11-hexadecahydrochrysen-2-ol], under “Table H-2”, the Emax was < 100% and the pEC50 is 7.00 to 9.00.

For `CC(C)[C@@H](O)CC[C@@H](C)[C@H]1CCC[C@H]2[C@@H]3CC=C4C[C@@](C)(O)CC[C@]4(C)[C@H]3CC[C@]12C` [Compound H-7, (2S,4aR,4bS,6aR,7R,10aS,10bS)-7-((2R,5S)-5-hydroxy-6-methylheptan-2-yl)-2,4a,6a-trimethyl-1,2,3,4,4a,4b,5,6,6a, 7,8,9,10,10a, 10b,11-hexadecahydrochrysen-2-ol], the pEC50 (Table H-2) is 6.30 to 7.00.

As for `CC(C)[C@H](O)CC[C@@H](C)[C@H]1CCC[C@H]2[C@@H]3CC=C4C[C@@](C)(O)CC[C@]4(C)[C@H]3CC[C@]12C` [Compound H-8, (2S,4aR,4bS,6aR,7R,10aS,10bS)-7-((2R,5R)-5-hydroxy-6-methylheptan-2-yl)-2,4a,6a-trimethyl-1,2,3,4,4a,4b,5,6,6a, 7,8,9,10,10a,10b,11-hexadecahydrochrysen-2-ol], under “Table H-2”, the Emax is < 100% and the pEC50 is 6.30 to 7.00.

With `CC[C@]1(O)CC[C@@]2(C)C(=CC[C@H]3[C@@H]4CCC[C@H]([C@H](C)CC[C@](C)(O)C(F)(F)F)[C@@]4(C)CC[C@@H]32)C1` [Compound H-9, (2S,4aR,4bS,6aR,7R,10aS,10bS)-2-ethyl-4a,6a-dimethyl-7-((2R,5S)-6,6,6-trifluoro-5-hydroxy-5-methylhexan-2-yl)-1,2,3,4,4a,4b,5,6,6a,7,8,9,10,10a,10b,11-hexadecahydrochrysen-2-ol], for the setting “Table H-2”, the pEC50 is 6.30 to 7.00.

Turning to `CC[C@]1(O)CC[C@@]2(C)C(=CC[C@H]3[C@@H]4CCC[C@H]([C@H](C)CC[C@@](C)(O)C(F)(F)F)[C@@]4(C)CC[C@@H]32)C1` [Compound H-10, (2S,4aR,4bS,6aR,7R,10aS,10bS)-2-ethyl-4a,6a-dimethyl-7-((2R,5R)-6,6,6-trifluoro-5-hydroxy-5-methylhexan-2-yl)-1,2,3,4,4a,4b,5,6,6a,7,8,9,10,10a,10b,11-hexadecahydrochrysen-2-ol], the pEC50 (Table H-2) was 6.00 to 6.30.

Regarding `C[C@H](CC[C@@](C)(O)C(F)(F)F)[C@H]1CCC[C@H]2[C@@H]3CC=C4C[C@@](C)(O)CC[C@]4(C)[C@H]3CC[C@]12C` [Compound H-11, (2S,4aR,4bS,6aR,7R,10aS,10bS)-2,4a,6a-trimethyl-7-((2R,5R)-6,6,6-trifluoro-5-hydroxy-5-methylhexan-2-yl)-1,2,3,4,4a,4b,5,6,6a,7,8,9,10,10a,10b,11-hexadecahydrochrysen-2-ol], the pEC50 (Table H-2) is 6.30 to 7.00.
